# From patent US20210369677A1, “SMALL MOLECULE ACTIVATORS OF POLYCYSTIN-2 (PKD2) AND USES THEREOF” (Northwestern University, priority 2020, published 2021)
# Target: T1, polycystin-2L1 (Homo sapiens, UniProt Q9P0L9, C210S/C223S)
# T1 construct: expressed in transfected cells; host or cells: HEK cells, transient overexpression
# Format: cell-based
# Conditions: C210S:C223S mutant
# Procedure: Electrophysiology. Ciliary ion currents were recorded using borosilicate glass electrodes polished to resistances of 14-22 MΩ using the cilium patch method previously described^32. Whole cell electrodes used to measure poly cystin-2L1 currents were fire polished to 1.5-4 MΩ resistances. Unless otherwise stated, whole cilia ionic currents were recorded in symmetrical [Na^+]. The pipette standard internal solution contained (in mM): 90 NaMES, 10 NaCl, 10 HEPES, 10 Na4-BAPTA (Glycine, N, N′-[1,2-ethanediylbis(oxy-2,1-phenylene)]bis[N-(carboxymethyl)]-,tetrasodium); pH was adjusted to 7.3 using NaOH. Standard bath solution contained 140 NaCl, 10 HEPES, 1.8 CaCl2); pH 7.4. All solutions were osmotically balanced to 295 (±6) mOsm with mannitol. Extracellular solutions containing TCEP and GSH were used within six hours of formulation. Data were collected using an Axopatch 200B patch clamp amplifier, Digidata 1440A, and pClamp 10 software. Whole-cilium and excised patch currents were digitized at 25 kHz and low-pass filtered at 10 kHz. In the whole cilium configuration, the holding potential was −60 mV and then depolarized using a 400 ms voltage ramp from −100 mV to 100 mV. The whole cell recordings of polycystin-2L1 currents were either activated by the same ramp protocol or by 100 ms depolarizations to 100 mV from a −100 mV holding potential. External conditions were controlled using a Warner Perfusion Fast-Step (SF-77B) system in which the patched cilia and electrode were held in the perfusate stream. Data were analyzed by Igor Pro 7.00 (Wavemetrics, Lake Oswego, Oreg.). The polycystin-2 open probability and the polycystin-2L1 tail current-voltage relationships were fit to a Boltzmann function, f(x)=1/(1+exp[V−V1/2]/k) to estimate voltage of half-maximal activation of current (V1/2).
# T1 sequence (Q9P0L9 whole entry C210S/C223S): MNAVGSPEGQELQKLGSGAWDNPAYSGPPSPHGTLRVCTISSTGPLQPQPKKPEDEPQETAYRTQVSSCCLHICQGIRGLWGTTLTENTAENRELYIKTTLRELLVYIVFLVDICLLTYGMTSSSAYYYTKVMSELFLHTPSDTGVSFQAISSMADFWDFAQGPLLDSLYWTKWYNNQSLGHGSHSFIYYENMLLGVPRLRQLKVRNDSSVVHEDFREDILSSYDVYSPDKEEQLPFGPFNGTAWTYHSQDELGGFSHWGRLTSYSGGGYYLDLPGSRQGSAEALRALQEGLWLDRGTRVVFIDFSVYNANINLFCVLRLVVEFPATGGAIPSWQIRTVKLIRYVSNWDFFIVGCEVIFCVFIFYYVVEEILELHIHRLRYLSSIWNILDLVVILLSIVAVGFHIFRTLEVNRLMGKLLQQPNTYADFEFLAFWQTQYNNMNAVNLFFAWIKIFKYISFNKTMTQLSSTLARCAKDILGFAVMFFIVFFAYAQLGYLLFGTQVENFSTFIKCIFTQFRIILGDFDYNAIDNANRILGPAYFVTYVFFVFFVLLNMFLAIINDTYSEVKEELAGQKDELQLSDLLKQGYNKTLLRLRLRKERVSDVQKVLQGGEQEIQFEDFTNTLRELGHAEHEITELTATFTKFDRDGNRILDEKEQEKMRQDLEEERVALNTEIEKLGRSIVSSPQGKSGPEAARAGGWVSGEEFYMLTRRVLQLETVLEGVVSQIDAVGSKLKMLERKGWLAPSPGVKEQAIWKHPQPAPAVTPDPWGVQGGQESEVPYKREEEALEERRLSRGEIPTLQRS
smiles,measurement,value
"N[C@@H](CCC(=O)N[C@@H](CS)C(=O)NCC(=O)O)C(=O)O [GSH, reduced glutathione]",Effect on C210S:C223S polycystin-2L1 channel,insensitive
